According to patent US6689767B2, “Triterpenes having antibacterial activity” (Regents of the University of Minnesota, priority 2000, dated 2004):

Experiments:
Staphylococcus aureus [1] = experiment: Kirby-Bauer disk diffusion growth inhibition, Staphylococcus aureus; format: cell-based; conditions: for Zone of inhibition (mm) against S. aureus: Example 35; for Zone of inhibition Staphylococcus aureus: 100 μl on 10 mm disk, 18 hours 37° C.; for Active against: Table 1 summary, S. aureus
Description: (§1) The compounds disclosed herein were tested for growth inhibition against four strains of bacteria: Escherichia coli, Staphylococcus aureus, methicillin-resistant Staphylococcus aureus, and Bacillus subtilis. […] They represent […]. E. coli is a gram-negative, non-spore forming, rod-shaped, opportunistic pathogen that resides in the human digestive tract. S. aureus is a gram positive coccus, is usually found morphologically as a […], and is an opportunistic human pathogen, often residing on or in the skin. B. subtilis is a gram positive spore-forming rod. Its native environment is the soil. The chemicals were tested for growth-inhibition of the bacteria by the Kirby-Bauer method. See, e.g., Microbiology, third edition; Lansing M. Prescott, John P. Harley, and Donald A. Klein; Wm. C. Brown Publishers.
(§2) Mueller-Hinton agar (Difco Lab, Michigan) was prepared according to the manufacturer's directions, and 20 ml was dispensed in each sterile petri dish. Sterile nutrient broth (Difco Lab, Michigan) was also prepared according to the manufacturer's directions.
(§3) Bacteria were grown in liquid nutrient broth for 18 hours at 37° C. until they were turbid.
(§4) An aliquot of 0.5 ml of cultured bacteria was aseptically transferred to the surface of a Mueller-Hinton agar plat, and spread using a cotton-tipped swab. Plates were then allowed to dry for 5 minutes. Then a 10 mm diameter filter paper disk impregnated with the test chemical was placed with sterile forceps on the plate. The disks were impregnated with 100 μl of a solution of the test compound in DMSO or in water, at the indicated concentrations in Table 1.
(§5) The zones of inhibition were measured after 18 hours growth at 37° C. Tests were done in triplicate.
(§6) Additional compounds were tested for activity against E. coli, laboratory strain S. aureus (not methicillin resistant), and B. subtilis. The compounds were tested by the disk diffusion method, as in Example 1, with application of a 10 mg/mil solution of the test compound in DMSO.
(§7) Derivatives of lupeol were tested for inhibition of bacterial growth using the Kirby-Bauer disk diffusion method and by growth in liquid culture. For the disk diffusion method, compounds were dissolved in DMSO and 100 μl was added to the 10 mm filter paper disk. The amount of compound applied to the disk varied. The amount applied for each compound was as follows: lupeol (50 μg), lupeol-3-maleate (15 μg), lupeol-3-thiodiglycolate (15 μg), lupeol-3-dimethyl succinate (60 μg), lupeol-3-phosphate (30 μg), lupenone (50 μg), lupenon-3-oxime (50 μg), lupeol-3-amine (50 μg), lupenon-1,2-ene-2-ol (50 μg). In liquid culture, the compounds were dissolved in DMSO at 1 mg/ml and then 100 μl was added to 7 ml of sterile broth, along with a 1/200 dilution of freshly grown bacterial liquid culture.

[2] = tested on: Staphylococcus epidemidis; experiment: Kirby-Bauer disk diffusion of lupeol derivatives, Staphylococcus epidermidis; format: cell-based
Description: as §7

Enterococcus faecalis = experiment: Kirby-Bauer disk diffusion of lupeol derivatives, Enterococcus faecalis; format: cell-based
Description: as §7

Escherichia coli = experiment: Kirby-Bauer disk diffusion growth inhibition, Escherichia coli; format: cell-based; conditions: for Zone of inhibition Escherichia coli: 100 μl on 10 mm disk, 18 hours 37° C.; for sensitivity of E. coli: Example 34, 10 mg/ml in DMSO; for Active against: Table 1 summary, E. coli
Description: as §1, §2, §3, §4, §5, §6

Bacillus subtilis = experiment: Kirby-Bauer disk diffusion growth inhibition, Bacillus subtilis; format: cell-based; conditions: for Zone of inhibition Bacillus subtilis: 100 μl on 10 mm disk, 18 hours 37° C.
Description: as §1, §2, §3, §4, §5, §6

bacteria = experiment: Summary statements over the antibacterial assays above; format: cell-based; conditions: summary list
Staphylococcus epidermis = experiment: Growth in liquid culture, optical density, S. epidermidis; format: cell-based, Staphylococcus epidermidis; conditions: 600 nm, 24 hours growth, test compound at 14 μg per ml; None = 0.07
Description: as §7

Staphylococcus aureus [3] = experiment: Growth in liquid culture, optical density, S. aureus; format: cell-based; conditions: 600 nm, 24 hours growth, test compound at 14 μg per ml; None = 0.08
Description: as §7

Enterococcus faecilis = experiment: Growth in liquid culture, optical density, E. faecalis; format: cell-based, Enterococcus faecalis; conditions: 600 nm, 24 hours growth, test compound at 14 μg per ml; None = 0.85
Description: as §7

[4] = reference antibiotic, amount on disk not stated
[5] = 50 μg applied to 10 mm disk in DMSO

Molecule: CC1(C)S[C@@H]2[C@H](NC(=O)[C@H](N)c3ccccc3)C(=O)N2[C@H]1C(=O)O [Ampicillin, reference compound]
- Zone of inhibition (mm) against S. aureus (Staphylococcus aureus [1]; [4]): 6.1 mm
- Zone of inhibition (mm) against S. epiderm. [2, 4]: 2 mm
- Zone of inhibition (mm) against E. faecalis (Enterococcus faecalis; [4]): 5.75 mm

Molecule: C=C(C)[C@@H]1CC[C@]2(COC(=O)CN)CC[C@]3(C)[C@H](CC[C@@H]4[C@@]5(C)CC[C@H](OC(=O)CN)C(C)(C)[C@@H]5CC[C@]43C)[C@@H]12 [Betulin 3,28-diglycine, Betulin-3,28-diglycine]
- Zone of inhibition Escherichia coli (Escherichia coli; 125 ng/ml in water): 0 mm
- sensitivity of E. coli (Escherichia coli): sensitive
- Active against (Escherichia coli): E. coli
- Zone of inhibition Staphylococcus aureus (Staphylococcus aureus [1]; 125 ng/ml in water): 0 mm
- Zone of inhibition Bacillus subtilis (Bacillus subtilis; 125 ng/ml in water): 0 mm
- active against at least one strain of bacteria in the assays above (bacteria): active against at least one strain of bacteria

Molecule: C=C(C)C1CCC2(COC(=O)CCC(=O)O)CC[C@@]3(C)C(CCC4[C@@]5(C)CCC(OC(=O)CCC(=O)O)C(C)(C)C5CC[C@]43C)C12 (some centres unmarked) [Betulin 3,28-disuccinate, Betulin-3,28-disuccinate]
- Zone of inhibition Escherichia coli (Escherichia coli; 1 mg/ml in DMSO): 0 mm
- Zone of inhibition Staphylococcus aureus (Staphylococcus aureus [1]; 1 mg/ml in DMSO): 0 mm
- Zone of inhibition Bacillus subtilis (Bacillus subtilis; 1 mg/ml in DMSO): 0 mm
- active against at least one strain of bacteria in the assays above (bacteria): active against at least one strain of bacteria

Molecule: C=C(C)[C@@H]1CC[C@]2(COC(=O)[C@@H](N)C(C)C)CC[C@]3(C)[C@H](CC[C@@H]4[C@@]5(C)CC[C@H](OC(=O)[C@@H](N)C(C)C)C(C)(C)[C@@H]5CC[C@]43C)[C@@H]12 [Betulin-3,28-Di-L-valine ester, Betulin-3,28-di-L-valine]
- sensitivity of S. aureus (Staphylococcus aureus [1]; Example 34, 10 mg/ml in DMSO): sensitive
- Active against (Staphylococcus aureus [1]): S. aureus
- active against at least one strain of bacteria in the assays above (bacteria): active against at least one strain of bacteria

Molecule: C=C(C)[C@@H]1CC[C@]2(CO)CC[C@]3(C)[C@H](CC[C@@H]4[C@@]5(C)CC[C@H](OC(=O)/C=C/c6ccc(O)c(O)c6)C(C)(C)[C@@H]5CC[C@]43C)[C@@H]12 [Betulin-3-caffeate]
- sensitivity of E. coli (Escherichia coli): sensitive
- Active against (Escherichia coli): E. coli
- active against at least one strain of bacteria in the assays above (bacteria): active against at least one strain of bacteria

Molecule: C=C(C)C1CCC2(COC(=O)COCC(=O)O)CCC3(C)C(CCC4C5(C)CCC(O)C(C)(C)C5CCC43C)C12 (centres unmarked) [Betulin-28-diglycolate]
- sensitivity of E. coli (Escherichia coli): sensitive
- Active against (Escherichia coli): E. coli
- active against at least one strain of bacteria in the assays above (bacteria): active against at least one strain of bacteria

Molecule: O=C(N[C@H](CO)[C@H](O)c1ccc([N+](=O)[O-])cc1)C(Cl)Cl [Chloramphenicol, reference compound]
- Zone of inhibition (mm) against S. aureus (Staphylococcus aureus [1]; [4]): 2.6 mm
- Zone of inhibition (mm) against S. epiderm. [2, 4]: 0.5 mm
- Zone of inhibition (mm) against E. faecalis (Enterococcus faecalis; [4]): 1.25 mm

Molecule: C=C(C)[C@@H]1CC[C@]2(C)CC[C@]3(C)[C@H](CC[C@@H]4[C@@]5(C)CCC(=NO)C(C)(C)[C@@H]5CC[C@]43C)[C@@H]12 [Lupenon oxime, Lupenon-3-oxime]
- Optical Density of S. epiderm (Staphylococcus epidermis): 0.06
- Zone of inhibition (mm) against S. aureus (Staphylococcus aureus [1]; [5]): 0.4 mm
- Active against (Staphylococcus aureus [1]): S. aureus,
- Zone of inhibition (mm) against S. epiderm. [2, 5]: 0 mm
- Optical Density of S. aureus (Staphylococcus aureus [3]): 0.06
- Zone of inhibition (mm) against E. faecalis (Enterococcus faecalis; [5]): 0.6 mm
- Active against (Enterococcus faecalis; Table 1 summary, E. faecalis): E. faecalis
- Optical Density of E. faecalis (Enterococcus faecilis): 0.45
- active against at least one strain of bacteria in the assays above (bacteria): active against at least one strain of bacteria

Molecule: [H]/N=C(/N)N[C@H]1[C@H](O)[C@@H](O)[C@H](O[C@@H]2O[C@@H](C)[C@](O)(C=O)[C@H]2O[C@@H]2O[C@@H](CO)[C@H](O)[C@@H](O)[C@@H]2NC)[C@@H](N/C(N)=N\[H])[C@@H]1O [Streptomycin, reference compound]
- zone of inhibition at 10 µg/disc (Escherichia coli; Escherichia coli, control antibiotic, 10 mcg): 20 mm
- Zone of inhibition (mm) against S. aureus (Staphylococcus aureus [1]; [4]): 1.25 mm
- zone of inhibition at 10 µg/disc (Staphylococcus aureus [1]; Staphylococcus aureus, control antibiotic, 10 mcg): 15 mm
- amount applied to the disk required for inhibition of S. aureus (Staphylococcus aureus [1]; disk diffusion assay, laboratory strain (not methicillin resistant)): 10 µg
- Zone of inhibition (mm) against S. epiderm. [2, 4]: 0 mm
- Zone of inhibition (mm) against E. faecalis (Enterococcus faecalis; [4]): 0 mm
- zone of inhibition at 10 µg/disc (Bacillus subtilis; Bacillus subtilis, control antibiotic, 10 mcg): 24 mm

Molecule: Allobetulin 2-valine-ester
- Zone of inhibition Escherichia coli (Escherichia coli; 125 ng/ml in water): 0 mm
- Zone of inhibition Staphylococcus aureus (Staphylococcus aureus [1]; 125 ng/ml in water): 0 mm
- Zone of inhibition Bacillus subtilis (Bacillus subtilis; 125 ng/ml in water): 0 mm

Molecule: Allobetulin ethanol amine
- Zone of inhibition Escherichia coli (Escherichia coli; 125 ng/ml in water): 0 mm
- Zone of inhibition Staphylococcus aureus (Staphylococcus aureus [1]; 125 ng/ml in water): 0 mm
- Zone of inhibition Bacillus subtilis (Bacillus subtilis; 125 ng/ml in water): 0 mm

Molecule: Allobetulin glycine
- Zone of inhibition Escherichia coli (Escherichia coli; 125 ng/ml in water): 0 mm
- Zone of inhibition Staphylococcus aureus (Staphylococcus aureus [1]; 125 ng/ml in water): 0 mm
- Zone of inhibition Bacillus subtilis (Bacillus subtilis; 125 ng/ml in water): 0 mm

Molecule: Allobetulin-3-phthalate [Allobetulin 3-phthalate]
- Zone of inhibition Escherichia coli (Escherichia coli; 125 ng/ml in water): 0 mm
- Zone of inhibition Staphylococcus aureus (Staphylococcus aureus [1]; 125 ng/ml in water): 0 mm
- Zone of inhibition Bacillus subtilis (Bacillus subtilis; 125 ng/ml in water): 0 mm

Molecule: Allobetulin-3-poly (ethylene glycol) bis (carboxymethyl) ether ester
- Zone of inhibition Escherichia coli (Escherichia coli; 125 ng/ml in water): 0 mm
- Zone of inhibition Staphylococcus aureus (Staphylococcus aureus [1]; 125 ng/ml in water): 0 mm
- Zone of inhibition Bacillus subtilis (Bacillus subtilis; 125 ng/ml in water): 0 mm

Molecule: Betulin 3,28-maleate
- Zone of inhibition Escherichia coli (Escherichia coli; 20 mg/ml in DMSO): 0 mm
- Zone of inhibition Staphylococcus aureus (Staphylococcus aureus [1]; 20 mg/ml in DMSO): 0 mm
- Zone of inhibition Bacillus subtilis (Bacillus subtilis; 20 mg/ml in DMSO): 0 mm

Molecule: Betulin dianiline ester
- Zone of inhibition Escherichia coli (Escherichia coli; 125 ng/ml in water): 0 mm
- Zone of inhibition Staphylococcus aureus (Staphylococcus aureus [1]; 125 ng/ml in water): 0 mm
- Zone of inhibition Bacillus subtilis (Bacillus subtilis; 125 ng/ml in water): 0 mm

Molecule: Betulin diglycolate
- Zone of inhibition Escherichia coli (Escherichia coli; 125 ng/ml in water): 10.0 mm
- Zone of inhibition Staphylococcus aureus (Staphylococcus aureus [1]; 125 ng/ml in water): 0 mm
- Zone of inhibition Bacillus subtilis (Bacillus subtilis; 125 ng/ml in water): 0 mm

Molecule: Gentamicin [reference compound]
- Zone of inhibition (mm) against S. aureus (Staphylococcus aureus [1]; [4]): 0.1 mm
- Zone of inhibition (mm) against S. epiderm. [2, 4]: 0 mm
- Zone of inhibition (mm) against E. faecalis (Enterococcus faecalis; [4]): 0 mm

Molecule: Hederine hydrate
- Zone of inhibition Escherichia coli (Escherichia coli; 0.5 ng/ml in water): 0 mm
- Zone of inhibition Staphylococcus aureus (Staphylococcus aureus [1]; 0.5 ng/ml in water): 0 mm
- Zone of inhibition Bacillus subtilis (Bacillus subtilis; 0.5 ng/ml in water): 0 mm

Molecule: Poly (ethylene glycol) bis (carboxymethyl) ester
- Zone of inhibition Escherichia coli (Escherichia coli; 125 ng/ml in water): 0 mm
- Zone of inhibition Staphylococcus aureus (Staphylococcus aureus [1]; 125 ng/ml in water): 0 mm
- Zone of inhibition Bacillus subtilis (Bacillus subtilis; 125 ng/ml in water): 0 mm
